As a reminder, the pIC50 is the IC50 on a negative log10 scale, so that one unit is a factor of ten.

Data on 24 compounds can be found in patent US5596009A, “Fused benzeneoxyacetic acid derivatives” (Ono Pharmaceutical Co., Ltd., priority 1991, dated 1997).

In one test the target is T1, PGl2 receptor (Homo sapiens, UniProt P43119).
T1 construct: human blood platelet membrane fraction (0.3 mg protein) was added; from tissue; host or cells: human blood platelets (membrane fraction)
In words: Inhibitory activity on binding of ^3 H-iloprost to PGl2 receptor on human blood platelet membrane fraction. The conditions noted are these: human blood platelet membrane fraction (0.3 mg protein), 10 nM [^3 H]-iloprost, pH 7.4, 24° C., 30 min; read-out: IC50 (inhibition of [^3 H]-iloprost binding to PGl2 receptor). Here is the method: i) Inhibitory activity on binding of ^3 H-iloprost to PGl2 receptor on human blood platelet membrane fraction
50 mM Tris-HCl buffer (pH 7.4) containing 15 mM MgCl2, 5 mM EDTA and 10 nM [^3 H]-iloprost were used as reaction medium. To 0.2 ml of the reaction medium, human blood platelet membrane fraction (0.3 mg protein) was added with or without a test compound. The mixture was incubated at 24° C. for 30 min. After incubation, 4 ml of ice-cold 10 mM Tris-HCl buffer (pH 7.4) was added to the reaction mixture, and filtered through Whatman GF/B glass fiber filter, and washed 4 times with 4 ml of ice-cold 10 mM Tris-HCl buffer (pH 7.4) to separate bound and free [^3 H]-iloprost. After washing, the filter was dried and radioactivity was counted. Non-specific binding was obtained by performing parallel binding experiments in the presence of 10 μM non-labelled iloprost. Specific binding was calculated by subtracting the non-specific binding from the total binding.
The inhibitory effect of test compound was calculated from the following equation.
The percentage of inhibition (%)=100-(B1 /B0 ×100)
B1 : specific [^3 H]-iloprost binding in presence of test compound
B0 : specific [^3 H]-iloprost binding in absence of test compound

Test [1] relates to human blood platelet aggregation. The experiment in a line: Inhibitory effect on human blood platelet aggregation. It counts as cell-based. The settings on record: human platelet-rich plasma (5×10^5 platelets/mm^3), compound 1 min prior to ADP (4 μm); read-out: IC50 (inhibition of platelet aggregation). Here is the method: ii) Inhibitory effect on human blood platelet aggregation
Platelet-rich plasma (PRP) was prepared from human blood (5×10^5 platelets/mm^3), and a test compound was added to PRP 1 min prior to the addition of ADP (4 μm). The aggregation was monitored using a platelet aggregometer (NBS HEMA TRACER 601, Niko Bioscience, Japan).

pIC50: −log10 of the molar value.

T1 sequence (P43119 whole entry): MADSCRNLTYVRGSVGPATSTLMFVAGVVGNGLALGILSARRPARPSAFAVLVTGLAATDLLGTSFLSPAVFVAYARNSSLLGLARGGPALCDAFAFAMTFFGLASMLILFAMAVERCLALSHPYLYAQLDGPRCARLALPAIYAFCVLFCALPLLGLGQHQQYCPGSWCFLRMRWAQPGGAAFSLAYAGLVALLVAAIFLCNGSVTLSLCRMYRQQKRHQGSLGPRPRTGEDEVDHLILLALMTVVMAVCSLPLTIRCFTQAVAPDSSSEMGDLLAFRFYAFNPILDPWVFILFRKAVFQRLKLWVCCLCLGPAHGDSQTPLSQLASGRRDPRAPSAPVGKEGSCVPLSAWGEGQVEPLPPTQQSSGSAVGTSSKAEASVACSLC

`O=C(O)COc1cccc2c1CCC(CCC(=O)NN=C(c1ccccc1)c1ccccc1)C2` (centres unmarked) [3 (aa), [2-(2-(Diphenylmethylideneamino)aminocarbonylethyl)-1,2,3,4-tetrahydronaphthalen-5-yl]oxyacetic acid]: the pIC50 at PGl2 receptor was 5.22. For `O=C(O)COc1cccc2c1CCCC2CCCC(=O)N(Cc1ccccc1)Cc1ccccc1` (centres unmarked) [3 (bb), [1-(3-(N,N-Dibenzylamino)carbonylpropyl)-1,2,3,4-tetrahydronaphthalen-5-yl]oxyacetic acid], the pIC50 on PGl2 receptor was 5.39. Consider `O=C(O)COc1cccc2c1CCCC2CCCC(=O)NC(c1ccccc1)c1ccccc1` (centres unmarked) [3 (cc), [1-(3-Diphenylmethylaminocarbonylpropyl)-1,2,3,4-tetrahydronaphthalen-5-yl]oxyacetic acid], for which, on PGl2 receptor, the pIC50 was 5.57. On to `O=C(O)COc1cccc2c1CCCC2CCCC(=O)N(c1ccccc1)c1ccccc1` (centres unmarked) [3 (dd), [1-(3-(N,N-Diphenylamino)carbonylpropyl)-1,2,3,4-tetrahydronaphthalen-5-yl]oxyacetic acid], for which the pIC50 was 5.77 at PGl2 receptor and 5.29 in test [1]. For the compound `O=C(O)COc1cccc2c1CCCC2CC(=O)NN(c1ccccc1)c1ccccc1` (centres unmarked) [3 (j), [1-((N,N-Diphenylamino)aminocarbonyimethyl)-1,2,3,4-tetrahydronaphthalen-5-yl]oxyacetic acid], the pIC50 on PGl2 receptor is 5.12.

`O=C(O)COc1cccc2c1CCCC2CCC(=O)N(Cc1ccccc1)c1ccccc1` (centres unmarked) [3 (l), [1-(2-(N-Benzyl-N-phenylamino)carbonylethyl)-1,2,3,4-tetrahydronaphthalen-5-yl]oxyacetic acid]: the pIC50 on PGl2 receptor is 5.54. With `O=C(O)COc1cccc2c1CCCC2CCC(=O)N(Cc1ccccc1)Cc1ccccc1` (centres unmarked) [3 (m), [1-(2-Dibenzylaminocarbonylethyl)-1,2,3,4-tetrahydronaphthalen-5-yl]oxyacetic acid], the pIC50 at PGl2 receptor is 6.49. Turning to `O=C(O)COc1cccc2c1CCCC2CCC(=O)NC(c1ccccc1)c1ccccc1` (centres unmarked) [3 (o), [1-(2-Diphenylmethylaminocarbonylethyl)-1,2,3,4-tetrahydronaphthalen-5-yl]oxyacetic acid], the figures for the pIC50 (on PGl2 receptor; in test [1]) were 6.68 and 6.40, respectively. Regarding `O=C(O)COc1cccc2c1CCCC2CCC(=O)NN(c1ccccc1)c1ccccc1` (centres unmarked) [3 (p), [1-(2-(N,N-Diphenylamino)aminocarbonylethyl)-1,2,3,4-tetrahydronaphthalen-5-yl]oxyacetic acid], the pIC50 at PGl2 receptor is 8.03; in test [1] it was 6.96. For `O=C(O)COc1cccc2c1CCCC2CCC(=O)NC(Cc1ccccc1)c1ccccc1` (centres unmarked) [3 (q), [1-(2-(1,2-Diphenylethyl)aminocarbonylethyl)-1,2,3,4-tetrahydronaphthalen-5-yl]oxyacetic acid], the pIC50 at PGl2 receptor is 5.17. As to `O=C(O)COc1cccc2c1CCC(CC(=O)NC(c1ccccc1)c1ccccc1)C2` (centres unmarked) [3 (v), [2-(Diphenylmethylaminocarbonylmethyl)-1,2,3,4-tetrahydronaphthalen-5-yl]oxyacetic acid], the negative logarithm of the IC50 (pIC50) at PGl2 receptor was 6.92; in test [1] it was 6.00. The corresponding values for `O=C(O)COc1cccc2c1CCC(CC(=O)NN(c1ccccc1)c1ccccc1)C2` (centres unmarked) [3 (w), [2-((N,N-Diphenylamino)aminocarbonylmethyl)-1,2,3,4-tetrahydronaphthalen-5-yl]oxyacetic acid] are 7.70 and 6.21. With `O=C(O)COc1cccc2c1CCC(CCC(=O)N(Cc1ccccc1)Cc1ccccc1)C2` (centres unmarked) [3 (x), [2-(2-(N,N-Dibenzylamino)carbonylethyl)-1,2,3,4-tetrahydronaphthalen-5-yl]oxyacetic acid], the pIC50 at PGl2 receptor is 5.57. With `O=C(O)COc1cccc2c1CCC(CCC(=O)NC(c1ccccc1)c1ccccc1)C2` (centres unmarked) [3 (y), [2-(2-(Diphenylmethylamino)carbonylethyl)-1,2,3,4-tetrahydronaphthalen-5-yl]oxyacetic acid], the pIC50 was 5.74 at PGl2 receptor and 5.15 in test [1].

Consider `O=C(O)COc1cccc2c1CCC(CCC(=O)NN(c1ccccc1)c1ccccc1)C2` (centres unmarked) [3 (z), [2-(2-(N,N-Diphenylamino)aminocarbonylethyl)-1,2,3,4-tetrahydronaphthalen-5-yl]oxyacetic acid], for which the figures for the pIC50 (on PGl2 receptor; in test [1]) were 7.00 and 5.64, respectively. Turning to `COC(=O)COc1cccc2c1CCC(CN(C)C(=O)CN(c1ccccc1)c1ccccc1)C2` (centres unmarked) [4 (a), Methyl [2-((N-methyl-N-(diphenylaminomethylcarbonyl)amino)methyl)-1,2,3,4-tetrahydronaphthalen-5-yl]oxyacetate], on PGl2 receptor, the pIC50 is 5.64. For `CN(CC1CCc2c(cccc2OCC(=O)O)C1)C(=O)CN(Cc1ccccc1)c1ccccc1` (centres unmarked) [8 (b), [2-((N-Methyl-N-((N'-benzyl-N'-phenylamino)methylcarbonyl)amino)methyl)-1,2,3,4-tetrahydronaphthalen-5-yl]oxyacetic acid], the pIC50 was 5.51 on PGl2 receptor and 5.10 in test [1]. For the compound `CCCN(CC1CCc2c(cccc2OCC(=O)O)C1)C(=O)CN(c1ccccc1)c1ccccc1` (centres unmarked) [8 (c), [2-((N-Propyl-N-(diphenylaminomethylcarbonyl)amino)methyl)-1,2,3,4-tetrahydronaphthalen-5-yl]oxyacetic acid], the negative-log IC50 (pIC50) was 6.74 at PGl2 receptor and 5.60 in test [1].

For `CCCN(CC1CCc2c(cccc2OCC(=O)O)C1)C(=O)CN(Cc1ccccc1)c1ccccc1` (centres unmarked) [8 (d), [2-((N-Propyl-N-((N'-benzyl-N'-phenylamino)methylcarbonyl)amino)methyl)-1,2,3,4-tetrahydronaphthalen-5-yl]oxyacetic acid], the pIC50 on PGl2 receptor was 5.74; in test [1], 5.25. Take `CCCN(CCC1CCc2c(cccc2OCC(=O)O)C1)C(=O)CN(c1ccccc1)c1ccccc1` (centres unmarked) [10 (a), [2-(2-(N-Propyl-N-(diphenylaminomethylcarbonyl)amino)ethyl)-1,2,3,4-tetrahydronaphthalen-5-yl]oxyacetic acid]: the pIC50 on PGl2 receptor was 6.32.

As to `CCCN(CCC1CCc2c(cccc2OCC(=O)O)C1)C(=O)CN(Cc1ccccc1)c1ccccc1` (centres unmarked) [10 (b), [2-(2-(N-Propyl-N-((N'-benzyl-N'-phenylamino)methylcarbonyl)amino)ethyl)-1,2,3,4-tetrahydronaphthalen-5-yl]oxyacetic acid], at PGl2 receptor, the pIC50 is 5.08. In the case of `CN(CCC1CCc2c(cccc2OCC(=O)O)C1)C(=O)CN(c1ccccc1)c1ccccc1` (centres unmarked) [10 (c), [2-(2-(N-Methyl-N-(diphenylaminomethylcarbonyl)amino)ethyl)-1,2,3,4-tetrahydronaphthalen-5-yl]oxyacetic acid], at PGl2 receptor, the pIC50 is 5.89. As for `O=C(O)COc1cccc2c1CCCC2CCC(=O)N(c1ccccc1)c1ccccc1` (centres unmarked) [Example 3, [1-(2-Diphenylaminocarbonylethyl)-1,2,3,4-tetrahydronaphthalen-5-yl]oxyacetic acid], the pIC50 was 6.17 at PGl2 receptor and 5.08 in test [1].

As to `CN(CC1CCc2c(cccc2OCC(=O)O)C1)C(=O)NC(c1ccccc1)c1ccccc1` (centres unmarked) [Example 7, [2-(N-Methyl-N-(diphenylmethylaminocarbonyl)aminomethyl)-1,2,3,4-tetrahydronaphthalen-5-yl]oxyacetic acid], the pIC50 at PGl2 receptor was 5.18.
